Reference: paper PMC4821856, “Novel Anti-Campylobacter Compounds Identified Using High Throughput Screening of a Pre-selected Enriched Small Molecules Library” (Frontiers in Microbiology, 2016)

Columns and labels:
[1] = test system: C. jejuni 81–176; assay: Sequential passage resistance assay at sub-lethal dose (0.5X MIC), 15 passages; assay type: cell-based, Campylobacter jejuni; conditions: liquid MH with 0.5X MIC
Procedure: Single step and sequential passage resistance assays were performed as described previously with a few modifications (Ling et al., [2015]; Xu et al., [2015]). The top 12 hit compounds were tested in this experiment. The MIC values for each of these 12 compound as determined in above assay was used for C. jejuni resistance studies using lethal (5X MIC) and sub-lethal (0.5X MIC) concentrations.
Overnight grown C. jejuni 81–176 culture was washed and suspended in MH broth to an OD600 of 0.05 (~10^7 CFU). Five milli liter of the OD adjusted fresh culture was mixed with 0.5X MIC of the relevant test compound (concentration allowing > 50% growth inhibition). Campylobacter jejuni cultured in 20 μg/mL chloramphenicol, or 50 μg/mL kanamycin, or 2% DMSO, or non-amended MH broth were used as controls. The bacteria were incubated at 42°C with shaking at 200 rpm for 24 h in the dark. Following incubation, cultures were centrifuged at 4700 × g for 10 min at room temperature. The supernatant was discarded; bacteria were resuspended in 5 ml of fresh MH containing 0.5X MIC of the same small molecule. This procedure was repeated 14 times. Following 15 passages, bacterial suspensions were assessed for resistance to the test compound by plating on MH media containing 1X MIC of small molecules.
Our rationale for performing the resistance studies was to determine the ability of C. jejuni strain to develop resistance to these compounds when cultured on solid media with a lethal dose (5X MIC) or in liquid media with a sub-lethal dose (0.5X MIC). The presence of resistant colonies in any of these assays would reduce the attractiveness of the relevant small molecule while an absence of resistant colonies would indicate a likely inability of C. jejuni to develop resistance in general. […] Since C. jejuni is the major cause of human campylobacteriosis (95% of the cases); (Butzler, [2004]) and due to limitation of compounds availability, we only performed resistance studies on C. jejuni 81–176. However, for future commercial application of these antimicrobials, more in-depth characterization of potential resistance by other C. jejuni strains and C. coli is warranted.

[2] = Hemolytic activity; assay type: cell-based; conditions: 10% sheep RBCs, 37°C
Procedure: The hemolytic activity of the top-12 compounds were determined as previously described (Strom et al., [2003]; Selin et al., [2015]). Briefly, 500 μL of sheep red blood cells (LAMPIRE Biological Laboratories, Pipersville, PA) were washed three times in PBS and resuspended in 5 mL of PBS to prepare a working concentration of 10% RBCs. Two hundred micro liter of the 10% RBCs suspension was incubated with 200 μM concentrations of compounds for 1 h at 37°C in a 96 well plate. After incubation, the plate was centrifuged (4000 rpm, 5 min) and placed on ice for few min. Supernatants from each well was transferred to a fresh 96 well plate and OD of 540 nm was measured. The PBS and 0.1% Triton X-100 were used as negative and positive controls, respectively. A range of 1–10% DMSO was also used as a control. A percent hemolysis was calculated using the following formula:
% Hemolysis=(OD of compound−OD of DMSO/ OD of Triton-X100)×100
Two independent experiments in triplicate were performed and results were expressed as the % average hemolysis.

[3] = Cytotoxicity by LDH release; assay type: cell-based, human; conditions: human, Caco-2 cells, 24 h, LDH release, no FBS
Procedure: (§1) We evaluated 12 selected compounds for cytotoxicity to Caco-2 (human colonic carcinoma) cells as described previously (Xu et al., [2015]). The Caco-2 cells were obtained from the American Type Culture Collection (ATCC Rockville, MD) and maintained in minimal essential medium (MEM) supplemented with 20% fetal bovine serum (FBS), 1% non-essential amino acid (NEAA; Life Technologies, NY) and with 1 mM sodium pyruvate at 37°C in a humidified 5% CO2 incubator. A 96-well tissue culture plate was seeded with approximately 1.4 × 10^5 cells per well and incubated for 24 h at 37°C in an incubator until a confluent monolayer formed. It was necessary to assess the dose dependent cytotoxicity effect of DMSO as compounds were diluted in DMSO therefore, we determined the cytotoxic effect of varying concentrations of the DMSO vehicle control (1, 2, and 5%) in Caco-2 cells containing 150 μL of media (without FBS) incubated at 24 h. There was no significant difference among the varying DMSO concentrations and their cytotoxicity values. Therefore, we used 1% DMSO in duplicate wells along with other appropriate controls for cytotoxicity experiment.
(§2) It is likely that the compounds can bind to serum proteins (FBS) present in the media and thus influence the true cytotoxic effect of the compounds; therefore, we performed the cytotoxicity assay in absence of FBS. The cytotoxicity assay was performed according to manufacturer instructions (Pierce TM; Thermo Scientific, IL) and the percentage of cytotoxicity was calculated by measuring the release of lactate dehydrogenase (LDH) enzyme from the treated cells. Briefly, ~1.4 × 10^5 cells were grown in a 96-well tissue culture plate containing 150 μL of growth medium. After three washes with medium without supplementation, 1 μL (200 μM) of compound was added to duplicate wells and incubated for 24 h at 37°C in a humidified, 5% CO2 incubator. Subsequently, 50 μL of supernatants were collected for measuring LDH release and the degree of cytotoxicity was determined according to the manufacturer instructions.
(§3) Three independent experiments were conducted in duplicate samples in each experiment and the average cytotoxicity values were plotted.

[4] = test system: Caco-2 (human colonic carcinoma) cells; assay: Cytotoxicity by LDH release; assay type: cell-based; conditions: Caco-2 cells, 200 μM; for Cytotoxicity (%): 24 h, LDH release, no FBS
Procedure: as §1, §2, §3

[5] = sheep red blood cells (10% suspension)

SMILES | Resistance, passage 0.5X MIC [1] | hemolysis at 1 h, 200 µM [2, 5] [%] | cytotoxicity at 24 h, 200 µM [3] [%] | Relative cytotoxicity among the 12 compounds [4] | hemolysis at 1 h, 200 µM [2] [%] | Cytotoxicity (%) [4] [%]
O=S(=O)(Nc1cccc(C(F)(F)F)c1)c1ccc(Br)cc1 [Comp 1] | No | 7.4 | 30.3 | highest cytotoxicity |  | 
COc1ccc(CN2CCN(c3ccc(F)cc3)CC2)cc1C [Comp 2] | No |  | ≤ 10 |  | 0 | 6.9
CN(C)c1ccc(CN2CCN(c3ccccc3Cl)CC2)cc1 [Comp 3] | No |  | 11.3 |  | 0 | 
Clc1ccc(N2CCN(Cc3ccsc3)CC2)cc1 [Comp 4] | No | 0 |  |  |  | 4.6
Cc1ccc(N2CCN(C/C=C/c3ccccc3)CC2)cc1 [Comp 5] | No | 0 | ≤ 10 |  |  | 6.5
O=c1c(Cl)c(Cl)cnn1-c1ccccc1Cl [Comp 7] | No | 0 | 28 |  |  | 
Cc1c(C(C)NCc2cccc(OC3CCCC3)c2)cnn1-c1ccccc1 (centres unmarked) [Comp 10] | No | 0 | 27.8 |  |  | 
COc1ccc(CNCc2ccc(Cl)s2)cc1OCC(O)CN1CCCC1 (centres unmarked) [Comp 12] | No | 0 |  | least cytotoxic |  | 0
CN(Cc1cccc2cnccc12)CC1CCCN(CCc2ccc(F)cc2)C1 (centres unmarked) [Comp 13] | No | 0 |  | least cytotoxic |  | 0
CN(CC(O)COc1ccccc1CNC1(c2ccccc2)CC1)C1CCCCC1 (centres unmarked) [Comp 17] | No | 0 | 16.6 |  |  | 
CN(Cc1ccccc1)CC1CCCN(CCc2ccc(F)cc2)C1 (centres unmarked) [Comp 18] | No | 0 | 8.8 |  |  | 
CC(=O)Nc1ccc(CN(C)CC2CCCN(CCc3cccc(C(F)(F)F)c3)C2)cc1 (centres unmarked) [Comp 22] | No | 0 | 12.1 |  |  | 
